The conditions of data set [1]: in vivo; cited from earlier work.
The next data set has as its system rat anhedonia model. As to conditions: cited from earlier work.
Data set [2] relates to patients with major depressive disorder (MDD). Conditions: open clinical trial, 21 patients with MDD, 8 weeks, 400 mg b.i.d.; cited from earlier work.
The next data set concerns the target T1, Rec. human COMT (Homo sapiens, UniProt P21964).
T1 sequence (P21964 1-271): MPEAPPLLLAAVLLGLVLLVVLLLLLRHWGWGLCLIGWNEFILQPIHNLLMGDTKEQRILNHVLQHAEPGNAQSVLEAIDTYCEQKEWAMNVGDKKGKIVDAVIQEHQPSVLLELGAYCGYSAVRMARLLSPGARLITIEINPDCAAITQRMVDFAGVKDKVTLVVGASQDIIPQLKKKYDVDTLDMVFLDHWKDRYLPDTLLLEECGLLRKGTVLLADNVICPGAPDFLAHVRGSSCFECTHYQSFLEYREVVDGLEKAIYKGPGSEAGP
The data set can be described thus: COMT-Fluorescence Assay. Format: biochemical. As to conditions: rec. human COMT 25 nM, 4-Nitrocatechol-Alexa488 200 nM, SAM 500 nM. The protocol: This intramolecular interaction is disturbed if the 4-Nitrocatechol is methylated. […] This increase of fluorescence intensity can be followed in a kinetic measurement. The slope in the linear range of the kinetic is calculated. An inhibitor compound decreases the slope.
Signal [rfu/min]=(rfu(end-point)−rfu(startpoint))/incubation_time_#2

The mark [3] stands for this setting: COMT-fluorescence assay, read-out: IC50.

Read-outs that look alike come from different tables or passages of the source.

The text below walks through data of patent US9656971B2, “COMT inhibitors” (Hoffmann-La Roche Inc., priority 2012, dated 2017).

By IC50 is commonly meant the concentration that gives 50% inhibition.

Take `Cc1ccc(C(=O)c2cc(O)c(O)c([N+](=O)[O-])c2)cc1` [Tolcapone, tolcapone]: the brain/plasma ratio in data set [1] is roughly 0.01. Also, the anti-depressant activity result (with rat anhedonia model; in data set [2]) was “anti-depressant activity” each time.

For the molecule `COC(=O)c1nn(C)cc1-c1cc(O)c2nc[nH]c(=O)c2c1` [Example 88, Methyl 4-(8-hydroxy-4-oxo-3,4-dihydroquinazolin-6-yl)-1-methyl-1H-pyrazole-3-carboxylate], the IC50 at Rec. human COMT (setting [3]) was 120 nM.

For `O=c1[nH]cnc2c(O)cc(-c3ccccc3COCCN3CCCC3)cc12` [Example 239, 8-Hydroxy-6-[2-(2-pyrrolidin-1-yl-ethoxymethyl)-phenyl]-3H-quinazolin-4-one; compound with trifluoro-acetic acid], the half-inhibitory concentration (IC50) at Rec. human COMT (setting [3]) stood at 50 nM.

Consider `Cc1cc(-c2c(-c3ccc(F)cc3)cc(O)c3nc[nH]c(=O)c23)ccn1` [Example 58, 6-(4-Fluorophenyl)-8-hydroxy-5-(2-methylpyridin-4-yl)quinazolin-4(3H)-one], for which, at Rec. human COMT (setting [3]), the 50% inhibitory concentration (IC50) came out at 10 nM.

Regarding `O=c1[nH]cnc2c(O)cc(-c3ccc4c(c3)CCNC4)cc12` [Example 171, 8-Hydroxy-6-(1,2,3,4-tetrahydroisoquinolin-6-yl)quinazolin-4(3H)-one], at Rec. human COMT (setting [3]), the IC50 stood at 80 nM.

At Rec. human COMT (IC50, COMT-fluorescence assay), `O=c1[nH]cnc2c(O)cc(-c3c(F)c(F)c(F)c(F)c3F)cc12` [Example 33, 8-Hydroxy-6-(perfluorophenyl)quinazolin-4(3H)-one] gave an IC50 of 20 nM.
